{"source": "patent US12186332B2", "about": "“Methods for overcoming WNT/beta-catenin anti-cancer resistance in leukemia stem cells” (STOWERS INSTITUTE FOR MEDICAL RESEARCH, priority 2019, dated 2025)", "key": {"pS^552-β-catenin": {"test_system": "pS^552-β-catenin", "assay": "FACS for pS552-β-catenin in populations from treated leukemic mice", "type": "in vivo, mouse", "conditions": "[Low]DXR; 4 days post-treatment; LSCs", "experimental": "Percent of LSC, HSPC or blast cell population expressing pS^552-β-catenin is indicated for each treatment. Numbers indicate mean±SD; n=3-5 per group.\nFor FACS analysis using PE-conjugated monoclonal anti-pS552-β-catenin antibody, cells were washed twice after cell surface staining, resuspended in 250ul of BD Fixation/Permeabilization® solution, incubated for 20 minutes at 4°, washed 2× with 1 ml of 1×BD Perm/Wash Buffer®, resuspended with 100 ul 1×BD Perm/Wash Buffer®, added […] anti-pS552-β-catenin antibody per 100 ul solution containing up to 3 million cells, incubated 2 hours on ice with rocking (resuspended every 15 minutes), washed 2 times and resuspended in PBS+2% FBS for analysis. BM from β-cat knockout mouse was harvested at 2-3 weeks post-knockout induction and stained alongside other test samples."}, "[1]": {"test_system": "patient BM with or without chemoresistant pS^552-β-cat^+ LSCs", "assay": "2° PDX recipients treated with low-dose DXR ([Low]nanoDXR)", "type": "in vivo, human", "experimental": "(§1) FIG. 12F is the Kaplan-Meier survival curve for 2° PDX recipients treated with vehicle or [Low]nanoDXR. Bone marrow was harvested from 1° recipients of diagnostic BM, transplanted into a larger set of 2° PDX recipients and treated with [Low] NanoDXR starting at day 14 post-transplant and continuing for up to 10 weeks.\nas §1, with “12G” for “12F”, “post-chemotherapy” for “diagnostic”\nHuman CD45^+ and human LSC engraftment was determined after succumbing to leukemia or at experimental endpoint. Graphs indicate frequency (%)+Std. Dev.\nas §1, with “12L” for “12F”, “BM (FIG. 12D),” for “BM,”\nas §1, with “12M” for “12F”, “BM (FIG. 12E),” for “BM,”\nHuman CD45^+ and human LSC engraftment was determined after succumbing to leukemia or at experimental endpoint. Graphs indicate frequency (%)+Std. Dev. (N.S.=not significant).\nAll patient samples were obtained under research ethics board approval with informed consent. Pediatric patient BM was transplanted into NSG mice. When 1° transplant mice succumbed to leukemia, bone marrow was harvested, frozen for later use, and transplanted into a larger set of 2° NSG recipients. […] Health was monitored independently by technicians blinded to any hypothetical outcome. […]"}, "[2]": {"conditions": "Pt samples containing chemoresistant pS552-β-cat+ LSCs"}}}
{"molecule": "COc1cccc2c1C(=O)c1c(O)c3c(c(O)c1C2=O)C[C@@](O)(C(=O)CO)C[C@@H]3O[C@H]1C[C@H](N)[C@H](O)[C@H](C)O1", "note": "[DXR, doxorubicin]", "values": [{"measurement": "pS552-β-catenin expression", "setting": "pS^552-β-catenin", "result": "substantially reduced"}, {"measurement": "leukemia engraftment and LSC frequency compared to vehicle control", "setting": "[1]; [2]", "result": "reduced leukemia engraftment and LSC frequency"}, {"measurement": "survival compared to vehicle control", "setting": "[1]; [2]", "result": "significantly improved survival"}, {"measurement": "survival, leukemia engraftment or LSC frequency", "setting": "[1]; Pt samples lacking chemoresistant pS552-β-cat+ LSCs", "result": "no significant difference"}]}
